From PMC9781827, “Isolation and Identification of Anti-Inflammatory Peptide from Goose Blood Hydrolysate to Ameliorate LPS-Mediated Inflammation and Oxidative Stress in RAW264.7 Macrophages” (Molecules, 2022)
Ends that are not written are not given here.

How the values were obtained:
[1] = biological target: T1, pepsin (Sus scrofa, UniProt P00791); test: Simulated gastric digestion with pepsin, products analysed by LC–MS/MS; type: in vitro ADME, porcine; conditions: 37 °C
T1 construct: purchased Shanghai Aladdin Biochemical Technology Co., Ltd; host or cells: porcine gastric mucosa
T1 sequence (P00791 60-385): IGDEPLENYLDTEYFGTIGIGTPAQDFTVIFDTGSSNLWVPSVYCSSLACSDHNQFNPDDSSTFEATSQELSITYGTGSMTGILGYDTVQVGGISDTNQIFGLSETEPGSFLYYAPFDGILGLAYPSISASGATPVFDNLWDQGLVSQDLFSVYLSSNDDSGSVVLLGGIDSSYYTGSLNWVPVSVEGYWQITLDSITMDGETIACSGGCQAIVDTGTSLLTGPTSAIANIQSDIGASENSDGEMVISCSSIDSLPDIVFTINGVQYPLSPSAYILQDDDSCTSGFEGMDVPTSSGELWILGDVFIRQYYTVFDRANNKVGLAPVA
Method: (§1) The fractionation of the peak with the highest anti-inflammatory activity obtained from RP-LC was further identified by LC-MS/MS equipped with a reversed phase BEH C18 analytical column (1.7 μm, 2.1 × 100 mm, Waters Inc., Milford, MA, USA). The fraction of peptide with the highest anti-inflammatory activity obtained from RP-LC was further Identified by LC-MS/MS. Eluent A: 0.065% TFA in 2% acetonitrile; Eluent B: 0.050% TFA in 80% acetonitrile. The gradient elution parameters: 0–30 min, 100% eluent A; 30–60 min, 30–80% eluent B; 60–80 min, 100% eluent A. The above flow rates were 0.5 mL/min. The fractions were detected at 280 nm by an ultraviolet detector. The flow entered directly into the MS/MS system (MALDI SYNAPT Q-TOF MS, Waters, Inc. Milford, MA, USA) for multiple reaction measurement. The recording mass range of precursor ions was m/z 50–4000. Nitrogen was used as a collision gas. Capillary voltage was set at 3.5 kV and cone voltage at 20 V. Source block temperature was set at 100 °C and desolvation temperature at 250 °C. Collision energy and detector voltage were 15 and 1600 V, respectively. The desolvation and cone gas flow were 500 and 50 L/h, respectively. The N-terminal fragment ion series (B series) and the C-terminal fragment ion series (Y series) were analysed. The amino acid sequence of the peptide was obtained by comprehensive analysis of B and Y ion series through Mass Lynx V4.1 operating system.
(§2) The stability of GBP in response to pepsin and trypsin in the simulation of GI digestion in vitro was examined based on Xie et al.. First, 2 g of NaCl and 3.2 g of pepsin from porcine gastric mucosa (Purity: 1:3000, CAS: 9001-75-6, Shanghai Aladdin Biochemical Technology Co., Ltd., Shanghai, China) were added to 800 mL of ultrapure water. The pH of the solution was adjusted with 6 mol/L hydrochloric acid to 3.0, and the volume was adjusted with ultrapure water to 1 L (as simulated gastric juice). […]

[2] = system: T2, pepsin; test: as above; type: in vitro ADME, porcine; conditions: pig, simulated gastric fluid; simulated gastric juice (pepsin from porcine gastric mucosa, NaCl), pH 3.0, 200 μg/mL peptide, 2 h, 37 °C; LC–MS/MS; read-out: share of IVYPWTQR split into smaller fragments after pepsin treatment
T2 construct: purchased Shanghai Aladdin Biochemical Technology Co., Ltd; host or cells: porcine gastric mucosa
Method: as §1, §2

[3] = biological target: T3, trypsin (Sus scrofa, UniProt P00761); test: Simulated intestinal digestion with trypsin; type: in vitro ADME; conditions: simulated intestinal fluid (trypsin from porcine pancreas, bile salt), pH 7.6, 2 h, 37 °C, after pepsin step; judged by unchanged cytokine levels
T3 construct: purchased Shanghai Aladdin Biochemical Technology Co., Ltd; host or cells: porcine pancreas
T3 sequence (P00761 9-231): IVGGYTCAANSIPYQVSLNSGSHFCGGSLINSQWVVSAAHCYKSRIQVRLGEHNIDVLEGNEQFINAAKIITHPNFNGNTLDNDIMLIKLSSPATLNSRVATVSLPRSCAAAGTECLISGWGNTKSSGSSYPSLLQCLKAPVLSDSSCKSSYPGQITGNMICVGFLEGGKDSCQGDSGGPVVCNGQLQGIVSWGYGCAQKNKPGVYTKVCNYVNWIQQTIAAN
Method: The stability of GBP in response to pepsin and trypsin in the simulation of GI digestion in vitro was examined based on Xie et al.. First, 2 g of NaCl and 3.2 g of pepsin from porcine gastric mucosa (Purity: 1:3000, CAS: 9001-75-6, Shanghai Aladdin Biochemical Technology Co., Ltd., Shanghai, China) were added to 800 mL of ultrapure water. The pH of the solution was adjusted with 6 mol/L hydrochloric acid to 3.0, and the volume was adjusted with ultrapure water to 1 L (as simulated gastric juice). Then, 0.68 g of potassium dihydrogen phosphate and 7.7 mL sodium hydroxide solution (0.2 mol/L) were dissolved in 70 mL of ultrapure water; 1 g of trypsin from porcine pancreas (Purity: ≥250 units/mg, CAS: […], Shanghai Aladdin Biochemical Technology Co., Ltd., Shanghai, China) and 6 g of bile salt were added and dissolved. The above solution was mixed and supplemented with ultrapure water to 1 L. Finally, the pH of the mixed solution was adjusted to 7.6 with sodium hydroxide solution (0.2 mol/L) (as simulated intestinal fluid). The 200 μg/mL peptide solution was adjusted to a pH of 3.0 with a 1 mol/L HCl solution, and 5 mL of simulated gastric juice was added to the solution and the reaction was carried out for 2 h in 37 °C water bath. Then, the simulated gastric digestion was terminated by being heated at 100 °C for 10 min. […]

Substance	stability against pepsin ([1]; simulated gastric digestion, pepsin, pH 3.0, 2 h)	metabolised at 2 h, 200 μg/mL [2]	stability against trypsin [3]	share of fragment formed from IVYPWTQR after pepsin treatment ([1]; simulated gastric juice (pepsin), pH 3.0, 200 μg/mL peptide, 2 h, LC–MS/MS)
IVYPWTQR [IVYPWTQR, IIe-Val-Tyr-Pro-Trp-Thr-Gln-Arg]	sensitive to pepsin	~45.2%	robustly resists trypsin	
YPWTQR [fragment of IVYPWTQR after pepsin treatment]				25.19%
